In publication PMC6297231 (Nature Communications, 2018):
Like-named read-outs stand apart in the source and are kept apart here.

Experiments:
MDAMB231 = assay: Cell viability assay; format: cell-based; settings: Homo sapiens, MDA-MB-231, 24 h; MDAMB231 (Breast); read-out: AZD5991 24h GI50
Experimental: (§1) Cells were plated at 3000 cells/well in 384-well white plates in corresponding cell growth media. […] Caspase-3/7 activation was subsequently determined using a Caspase-Glo 3/7 Reagent (Promega) and viability was assayed using the CellTiter-Glo Reagent (Promega) as described in manufacturer’s instructions. Dose–response curves for caspase-3/7 activation and viability were plotted and analyzed (including EC50 and GI50 determination) using GraphPad Prism.

TMD8 = assay: Cell viability assay; format: cell-based; settings: Homo sapiens, 24 h; TMD8 (NHL); read-out: AZD5991 24h GI50
Experimental: as §1

Nomo1 = assay: Caspase-3/7 activation assay; format: cell-based; settings: Homo sapiens, NOMO-1, 6 h
Experimental: as §1

HCC827 = assay: Cell viability assay; format: cell-based; settings: Homo sapiens, 24 h; HCC827 (Lung); read-out: AZD5991 24h GI50
Experimental: as §1

OCIAML2 = assay: Cell viability assay; format: cell-based; settings: Homo sapiens, OCI-AML2, 24 h; OCIAML2 (AML); read-out: AZD5991 24h GI50
Experimental: as §1

Sudhl10 = assay: Cell viability assay; format: cell-based; settings: Homo sapiens, SU-DHL10, 24 h; Sudhl10 (NHL); read-out: AZD5991 24h GI50
Experimental: as §1

GRANTA519 = assay: Cell viability assay; format: cell-based; settings: Homo sapiens, Granta-519, 24 h; GRANTA519 (NHL); read-out: AZD5991 24h GI50
Experimental: as §1

Daudi = assay: Cell viability assay; format: cell-based; settings: Homo sapiens, 24 h; Daudi (NHL); read-out: AZD5991 24h GI50
Experimental: as §1

Karpas620 = assay: Cell viability assay; format: cell-based; settings: Karpas-620, 24 h; Karpas620 (MM); read-out: AZD5991 24h GI50
Experimental: as §1

WSUDLCL2 = assay: Cell viability assay; format: cell-based; settings: Homo sapiens, 24 h; WSUDLCL2 (NHL); read-out: AZD5991 24h GI50
Experimental: as §1

GIST T1 = assay: Cell viability assay; format: cell-based; settings: Homo sapiens, GISTT1, 24 h; GIST T1 (GI); read-out: AZD5991 24h GI50
Experimental: as §1

H23 = assay: Cell viability assay; format: cell-based; settings: Homo sapiens, NCI-H23, 24 h; H23 (Lung); read-out: AZD5991 24h GI50
Experimental: as §1

ARH77 = assay: Cell viability assay; format: cell-based; settings: Homo sapiens, ARH-77, 24 h; ARH77 (MM); read-out: AZD5991 24h GI50
Experimental: as §1

Karpas422 = assay: Cell viability assay; format: cell-based; settings: Homo sapiens, KARPAS-422, 24 h; Karpas422 (NHL); read-out: AZD5991 24h GI50
Experimental: as §1

SKMEL24 = assay: Cell viability assay; format: cell-based; settings: Homo sapiens, SK-MEL-24, 24 h; SKMEL24 (Skin); read-out: AZD5991 24h GI50
Experimental: as §1

MWCL1 = assay: Cell viability assay; format: cell-based; settings: 24 h; MWCL1 (NHL); read-out: AZD5991 24h GI50
Experimental: as §1

H1734 = assay: Cell viability assay; format: cell-based; settings: Homo sapiens, NCI-H1734, 24 h; H1734 (Lung); read-out: AZD5991 24h GI50
Experimental: as §1

Sudhl6 = assay: Cell viability assay; format: cell-based; settings: Homo sapiens, SU-DHL-6, 24 h; Sudhl6 (NHL); read-out: AZD5991 24h GI50
Experimental: as §1

SKOV3 = assay: Cell viability assay; format: cell-based; settings: Homo sapiens, SK-OV-3, 24 h; SKOV3 (Others); read-out: AZD5991 24h GI50
Experimental: as §1

AMO1 = assay: Cell viability assay; format: cell-based; settings: Homo sapiens, 24 h; AMO1 (MM); read-out: AZD5991 24h GI50
Experimental: as §1

MV411 = assay: Caspase-3/7 activation assay; format: cell-based; settings: Homo sapiens
Experimental: as §1

Sudhl2 = assay: Cell viability assay; format: cell-based; settings: Homo sapiens, SU-DHL-2, 24 h; Sudhl2 (NHL); read-out: AZD5991 24h GI50
Experimental: as §1

H647 = assay: Cell viability assay; format: cell-based; settings: Homo sapiens, NCI-H647, 24 h; H647 (Lung); read-out: AZD5991 24h GI50
Experimental: as §1

5637 = assay: Cell viability assay; format: cell-based; settings: 24 h; 5637 (Urology); read-out: AZD5991 24h GI50
Experimental: as §1

[1] = test system: Eμ-Myc lymphoma cells stably expressing human Bfl-1/A1; assay: Apoptosis induction in Eμ-Myc lymphoma cells; settings: overexpression of Bfl-1/A1, 24 h
Text: The retroviral plasmids to express human Bcl-2 family members in murine Eμ-Myc lymphoma cells are MSCV-hMCL-1-GFP, MSCV-hBCL-2-GFP, MSCV-hBCL-XL-GFP, MSCV-hBFL-1/A1-GFP, and MSCV-hBCL-w-GFP. To produce viruses, constructs of interest were co-transfected into HEK293T cells with the plasmid encoding the packaging viruses (p-CL-AMPHO provided by Phillip Darcy from Peter MacCallum Cancer Center, Melbourne, Australia) using standard calcium phosphate transient transfection technique. The retroviruses were harvested, filtered and used to infect target cells following standard procedures.
Samples were then centrifuged, washed twice with PBS and analyzed by flow cytometry in a BD LSRFortessa. FACSDiva software was used for data collection and FlowJo software for data analysis.

H2110 = assay: Cell viability assay; format: cell-based; settings: NCI-H2110, 24 h; H2110 (Lung); read-out: AZD5991 24h GI50
Experimental: as §1

Toledo = assay: Cell viability assay; format: cell-based; settings: Homo sapiens, 24 h; Toledo (NHL); read-out: AZD5991 24h GI50
Experimental: as §1

SKLU1 = assay: Cell viability assay; format: cell-based; settings: Homo sapiens, SK-LU-1, 24 h; SKLU1 (Lung); read-out: AZD5991 24h GI50
Experimental: as §1

[2] = test system: NCI-H23 cells with enhanced expression of Bcl-xL; assay: Cell death in NCI-H23 with doxycycline-inducible Bcl-xL
Text: The lentiviral plasmid pTRIPZ-FLAG-BCL-XL was used for generation of NCI-H23 cells stably expressing doxycyline-inducible Bcl-xL. To produce viruses, the construct of interest was co-transfected into HEK293T cells with a plasmid encoding the packaging viruses (pPACKH1 Lentivector Packaging Kit, cat#LV500A1 SystemBioscience) using Lipofectamine transfection reagent (ThermoFisher Scientific). The lentiviruses were harvested, filtered, and used to infect target cells following standard procedures. Transduced cells were then subject to puromycin selection for 3 weeks before evaluation in apoptosis and cell proliferation assays.
(b) NCI-H23 cells stably expressing doxycycline-inducible Bcl-xL were treated with
determined using CellTiter Glo and GraphPad Prism for data analysis. Data shown is the average of 2 experiments.

JJN3 = assay: Cell viability assay; format: cell-based; settings: Homo sapiens, JJN-3, 24 h; JJN3 (MM); read-out: AZD5991 24h GI50
Experimental: as §1

Cc1c2c(nn1C)CSCc1cc(n(C)n1)CSc1cc(c3ccccc3c1)OCCCc1c(C(=O)O)n(C)c3c-2c(Cl)ccc13 (atropisomer, axis not shown; (Ra)) [(Ra)-7]
GI50 (MDAMB231): > 30000 nM
GI50 (TMD8): 535 nM
EC50 (Nomo1; read-out: 6h caspase EC50, NOMO1, single agent): 32.5 nM
EC50 (Nomo1; read-out: AZD5991 6h EC50, Nomo1 (AML), caspase 3/7 activation): 47 nM
GI50 (HCC827): 20100 nM
GI50 (OCIAML2): 295 nM
GI50 (Sudhl10): 10 nM
GI50 (GRANTA519): 19300 nM
GI50 (Daudi): 133 nM
GI50 (Karpas620): 87 nM
GI50 (WSUDLCL2): 109 nM
GI50 (GIST T1): > 30000 nM
GI50 (H23): 122 nM
GI50 (ARH77): 18200 nM
GI50 (Karpas422): 490 nM
GI50 (SKMEL24): 17900 nM
GI50 (MWCL1): 1650 nM
GI50 (H1734): 13800 nM
GI50 (Sudhl6): 15 nM
GI50 (SKOV3): 144 nM
GI50 (AMO1): 129 nM
EC50 (MV411; MV4-11, 6 h, read-out: 6h caspase EC50, MV411, single agent): 56.3 nM
EC50 (MV411; MV4-11, 6 h, read-out: AZD5991 6h EC50, MV411 (AML), caspase 3/7 activation): 25 nM
EC50 (MV411; MV4-11, caspase activation, Mcl-1-dependent cell line, read-out: MV4-11, EC50): 24 nM
EC50 (MV411; MV4-11, mean of log transformed data, read-out: MV4-11 caspase pEC50 (converted)): 24 nM
GI50 (Sudhl2): 585 nM
GI50 (H647): > 30000 nM
GI50 5637: 28000 nM
apoptosis-inducing activity [1]: blocked
GI50 (H2110): 140 nM
GI50 (Toledo): 113 nM
GI50 (SKLU1): 29900 nM
induced cell death [2]: resistance
GI50 (JJN3): 255 nM
